In ChEMBL document CHEMBL5724914, “Linking interpersonal differences in gut microbiota composition and drug biotransformation activity” (2024):

Experiment: (§1) The drug is tested on Z-029 corresponding to rat gut metagenome with ENA study accession number: PRJEB37062 and ENA sample accession number: ERS12561828 for biotransformation under anaerobic condition. The drug concentrations were measured over 9 timepoints collected between 0 and 24 hours of incubation by liquid-chromatography-coupled mass spectrometry (LC–MS)
Conditions: 2 µM
Note: call rule not given here.

Bacterial Biotransformation | SMILES
Compound NOT metabolized | COc1ccccc1OCCNCC(O)COc1cccc2[nH]c3ccccc3c12 (stereo not given) [CARVEDILOL]
Compound NOT metabolized | CN1CCC[C@@H]1CCO[C@](C)(c1ccccc1)c1ccc(Cl)cc1.O=C(O)/C=C/C(=O)O [CLEMASTINE FUMARATE]

Experiment: as §1, with “Z-027” for “Z-029”, “to” for “to rat gut”, “ERS12561826” for “ERS12561828”
Conditions: 2 µM

Bacterial Biotransformation | SMILES
Compound NOT metabolized | COc1ccccc1OCCNCC(O)COc1cccc2[nH]c3ccccc3c12 (stereo not given) [CARVEDILOL]
Compound NOT metabolized | CN1CCC[C@@H]1CCO[C@](C)(c1ccccc1)c1ccc(Cl)cc1.O=C(O)/C=C/C(=O)O [CLEMASTINE FUMARATE]

Experiment: as §1, with “on Z-024” for “on Z-029”, “to pig” for “to rat”, “number: ERS12561823” for “number: ERS12561828”
Conditions: 2 µM

Bacterial Biotransformation | SMILES
Compound metabolized | COc1ccccc1OCCNCC(O)COc1cccc2[nH]c3ccccc3c12 (stereo not given) [CARVEDILOL]
Compound NOT metabolized | CN1CCC[C@@H]1CCO[C@](C)(c1ccccc1)c1ccc(Cl)cc1.O=C(O)/C=C/C(=O)O [CLEMASTINE FUMARATE]

Experiment: as §1, with “on Z-016” for “on Z-029”, “to mouse” for “to rat”, “number: ERS12561815” for “number: ERS12561828”
Conditions: 2 µM

Bacterial Biotransformation | SMILES
Compound NOT metabolized | COc1ccccc1OCCNCC(O)COc1cccc2[nH]c3ccccc3c12 (stereo not given) [CARVEDILOL]
Compound NOT metabolized | CN1CCC[C@@H]1CCO[C@](C)(c1ccccc1)c1ccc(Cl)cc1.O=C(O)/C=C/C(=O)O [CLEMASTINE FUMARATE]

Experiment: as §1, with “Z-012” for “Z-029”, “to” for “to rat gut”, “ERS12561812” for “ERS12561828”
Conditions: 2 µM

Bacterial Biotransformation | SMILES
Compound NOT metabolized | COc1ccccc1OCCNCC(O)COc1cccc2[nH]c3ccccc3c12 (stereo not given) [CARVEDILOL]
Compound NOT metabolized | CN1CCC[C@@H]1CCO[C@](C)(c1ccccc1)c1ccc(Cl)cc1.O=C(O)/C=C/C(=O)O [CLEMASTINE FUMARATE]

Experiment: as §1, with “on Z-011” for “on Z-029”, “to mouse” for “to rat”, “number: ERS12561811” for “number: ERS12561828”
Conditions: 2 µM

Bacterial Biotransformation | SMILES
Compound NOT metabolized | COc1ccccc1OCCNCC(O)COc1cccc2[nH]c3ccccc3c12 (stereo not given) [CARVEDILOL]
Compound NOT metabolized | CN1CCC[C@@H]1CCO[C@](C)(c1ccccc1)c1ccc(Cl)cc1.O=C(O)/C=C/C(=O)O [CLEMASTINE FUMARATE]

Experiment: as §1, with “on Z-002” for “on Z-029”, “to rabbit” for “to rat”, “number: ERS12561802” for “number: ERS12561828”
Conditions: 2 µM

Bacterial Biotransformation | SMILES
Compound NOT metabolized | COc1ccccc1OCCNCC(O)COc1cccc2[nH]c3ccccc3c12 (stereo not given) [CARVEDILOL]
Compound NOT metabolized | CN1CCC[C@@H]1CCO[C@](C)(c1ccccc1)c1ccc(Cl)cc1.O=C(O)/C=C/C(=O)O [CLEMASTINE FUMARATE]

Experiment: as §1, with “on WLS-240” for “on Z-029”, “to human” for “to rat”, “number: ERS12561773” for “number: ERS12561828”
Conditions: 2 µM

Bacterial Biotransformation | SMILES
Compound metabolized | COc1ccccc1OCCNCC(O)COc1cccc2[nH]c3ccccc3c12 (stereo not given) [CARVEDILOL]
Compound NOT metabolized | CN1CCC[C@@H]1CCO[C@](C)(c1ccccc1)c1ccc(Cl)cc1.O=C(O)/C=C/C(=O)O [CLEMASTINE FUMARATE]

Experiment: as §1, with “on WLS-098” for “on Z-029”, “to human” for “to rat”, “number: ERS12561754” for “number: ERS12561828”
Conditions: 2 µM

Bacterial Biotransformation | SMILES
Compound metabolized | COc1ccccc1OCCNCC(O)COc1cccc2[nH]c3ccccc3c12 (stereo not given) [CARVEDILOL]
Compound metabolized | CN1CCC[C@@H]1CCO[C@](C)(c1ccccc1)c1ccc(Cl)cc1.O=C(O)/C=C/C(=O)O [CLEMASTINE FUMARATE]

Experiment: as §1, with “on WLS-069” for “on Z-029”, “to human” for “to rat”, “number: ERS12561748” for “number: ERS12561828”
Conditions: 2 µM

Bacterial Biotransformation | SMILES
Compound metabolized | COc1ccccc1OCCNCC(O)COc1cccc2[nH]c3ccccc3c12 (stereo not given) [CARVEDILOL]
Compound metabolized | CN1CCC[C@@H]1CCO[C@](C)(c1ccccc1)c1ccc(Cl)cc1.O=C(O)/C=C/C(=O)O [CLEMASTINE FUMARATE]

Experiment: as §1, with “on WLS-038” for “on Z-029”, “to human” for “to rat”, “number: ERS12561745” for “number: ERS12561828”
Conditions: 2 µM

Bacterial Biotransformation | SMILES
Compound metabolized | COc1ccccc1OCCNCC(O)COc1cccc2[nH]c3ccccc3c12 (stereo not given) [CARVEDILOL]
Compound metabolized | CN1CCC[C@@H]1CCO[C@](C)(c1ccccc1)c1ccc(Cl)cc1.O=C(O)/C=C/C(=O)O [CLEMASTINE FUMARATE]

Conditions: human gut metagenome, 24 h, 2 µM

Bacterial Biotransformation | SMILES
Compound NOT metabolized | COc1ccccc1OCCNCC(O)COc1cccc2[nH]c3ccccc3c12 (stereo not given) [CARVEDILOL]
Compound NOT metabolized | CN1CCC[C@@H]1CCO[C@](C)(c1ccccc1)c1ccc(Cl)cc1.O=C(O)/C=C/C(=O)O [CLEMASTINE FUMARATE]

Conditions: human gut metagenome, 24 h, 2 µM
Remark: another data set of the same source

Bacterial Biotransformation | SMILES
Compound metabolized | COc1ccccc1OCCNCC(O)COc1cccc2[nH]c3ccccc3c12 (stereo not given) [CARVEDILOL]
Compound NOT metabolized | CN1CCC[C@@H]1CCO[C@](C)(c1ccccc1)c1ccc(Cl)cc1.O=C(O)/C=C/C(=O)O [CLEMASTINE FUMARATE]

Conditions: human gut metagenome, 24 h, 2 µM
Remark: another data set of the same source

Bacterial Biotransformation | SMILES
Compound NOT metabolized | COc1ccccc1OCCNCC(O)COc1cccc2[nH]c3ccccc3c12 (stereo not given) [CARVEDILOL]
Compound metabolized | CN1CCC[C@@H]1CCO[C@](C)(c1ccccc1)c1ccc(Cl)cc1.O=C(O)/C=C/C(=O)O [CLEMASTINE FUMARATE]

Conditions: human gut metagenome, 24 h, 2 µM
Remark: another data set of the same source

Bacterial Biotransformation | SMILES
Compound NOT metabolized | COc1ccccc1OCCNCC(O)COc1cccc2[nH]c3ccccc3c12 (stereo not given) [CARVEDILOL]
Compound metabolized | CN1CCC[C@@H]1CCO[C@](C)(c1ccccc1)c1ccc(Cl)cc1.O=C(O)/C=C/C(=O)O [CLEMASTINE FUMARATE]

Conditions: human gut metagenome, 24 h, 2 µM
Remark: another data set of the same source

Bacterial Biotransformation | SMILES
Compound metabolized | COc1ccccc1OCCNCC(O)COc1cccc2[nH]c3ccccc3c12 (stereo not given) [CARVEDILOL]
Compound metabolized | CN1CCC[C@@H]1CCO[C@](C)(c1ccccc1)c1ccc(Cl)cc1.O=C(O)/C=C/C(=O)O [CLEMASTINE FUMARATE]

Conditions: human gut metagenome, 24 h, 2 µM
Remark: another data set of the same source

Bacterial Biotransformation | SMILES
Compound metabolized | COc1ccccc1OCCNCC(O)COc1cccc2[nH]c3ccccc3c12 (stereo not given) [CARVEDILOL]
Compound metabolized | CN1CCC[C@@H]1CCO[C@](C)(c1ccccc1)c1ccc(Cl)cc1.O=C(O)/C=C/C(=O)O [CLEMASTINE FUMARATE]

Conditions: human gut metagenome, 24 h, 2 µM
Remark: another data set of the same source

Bacterial Biotransformation | SMILES
Compound NOT metabolized | COc1ccccc1OCCNCC(O)COc1cccc2[nH]c3ccccc3c12 (stereo not given) [CARVEDILOL]
Compound NOT metabolized | CN1CCC[C@@H]1CCO[C@](C)(c1ccccc1)c1ccc(Cl)cc1.O=C(O)/C=C/C(=O)O [CLEMASTINE FUMARATE]

Conditions: human gut metagenome, 24 h, 2 µM
Remark: another data set of the same source

Bacterial Biotransformation | SMILES
Compound metabolized | COc1ccccc1OCCNCC(O)COc1cccc2[nH]c3ccccc3c12 (stereo not given) [CARVEDILOL]
Compound NOT metabolized | CN1CCC[C@@H]1CCO[C@](C)(c1ccccc1)c1ccc(Cl)cc1.O=C(O)/C=C/C(=O)O [CLEMASTINE FUMARATE]

Conditions: human gut metagenome, 24 h, 2 µM
Remark: another data set of the same source

Bacterial Biotransformation | SMILES
Compound metabolized | COc1ccccc1OCCNCC(O)COc1cccc2[nH]c3ccccc3c12 (stereo not given) [CARVEDILOL]
Compound metabolized | CN1CCC[C@@H]1CCO[C@](C)(c1ccccc1)c1ccc(Cl)cc1.O=C(O)/C=C/C(=O)O [CLEMASTINE FUMARATE]
